Test results from ChEMBL document CHEMBL1201862, “PubChem BioAssay data set” (2004).
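Results reflect a 48-hour exposure of cells in 96-well plates to compound at five concentrations. At the GI50, growth is halved.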 Calls of active or inactive are those of the source. Cut-off read from the data, not from the text of the source: active = GI50 up to about 1.1 µM and inactive = higher.

Key:
Experiment in all cases: growth of human tumour cells (NCI), 48 h
[1] = test system: 786-0
[2] = test system: A549
[3] = test system: CCRF-CEM
[4] = test system: COLO 205
[5] = test system: DMS-114
[6] = test system: DMS-273
[7] = test system: EKVX
[8] = test system: HCT-116
[9] = test system: HCT-15
[10] = test system: HOP-18
[11] = test system: HOP-62
[12] = test system: HOP-92
[13] = test system: HT-29
[14] = test system: IGROV-1
[15] = test system: K562
[16] = test system: KM-20L2
[17] = test system: KM12
[18] = test system: LOX IMVI
[19] = test system: LXFL 529
[20] = test system: M14
[21] = test system: M19-MEL
[22] = test system: MOLT-4
[23] = test system: Malme-3M
[24] = test system: NCI-H226
[25] = test system: NCI-H23
[26] = test system: NCI-H522
[27] = test system: OVCAR-3
[28] = test system: OVCAR-4
[29] = test system: OVCAR-5
[30] = test system: OVCAR-8
[31] = test system: RPMI-8226
[32] = test system: RXF 393
[33] = test system: RXF 631
[34] = test system: SF-268
[35] = test system: SF-295
[36] = test system: SF-539
[37] = test system: SK-MEL-28
[38] = test system: SK-MEL-2
[39] = test system: SK-MEL-5
[40] = test system: SK-OV-3
[41] = test system: SN12C
[42] = test system: SNB-19
[43] = test system: SNB-75
[44] = test system: SNB-78
[45] = test system: SW-620
[46] = test system: TK-10
[47] = test system: U-251
[48] = test system: UACC-257
[49] = test system: UACC-62
[50] = test system: UO-31
[51] = test system: XF498
[52] = test system: ACHN
[53] = test system: CAKI-1
[54] = test system: DLD-1
[55] = test system: HCC 2998
[56] = test system: HL-60
[57] = test system: NCI-H460
[58] = test system: SR
[59] = test system: A498

With COc1ccc(C2CCc3cc4c(cc3/C2=N/OC(C)=O)OCO4)cc1OC (stereo not given) the GI50 [1] was 32.5 µM (inactive), the GI50 [2] was 18.3 µM (inactive) and the GI50 [3] was 25.6 µM (inactive). For the same molecule, the GI50 [4] was 22.5 µM (inactive), the GI50 [5] was 10.7 µM (inactive) and the GI50 [6] was 24.8 µM (inactive). For the same molecule, the GI50 [7] was 29.2 µM (inactive), the GI50 [8] was 14.2 µM (inactive) and the GI50 [9] was 30.3 µM. For the same molecule, the GI50 [10] was 26.7 µM (inactive), the GI50 [11] was 40.3 µM (inactive) and the GI50 [12] was 23.1 µM (inactive). For the same molecule, the GI50 [13] was 36.2 µM (inactive), the GI50 [14] was 24.3 µM (inactive) and the GI50 [15] was 20.2 µM (inactive). For the same molecule, the GI50 [16] was 22.3 µM (inactive), the GI50 [17] was 20.8 µM (inactive) and the GI50 [18] was 15.9 µM (inactive). For the same molecule, the GI50 [19] was 26.4 µM (inactive), the GI50 [20] was 20.6 µM (inactive) and the GI50 [21] was 22.1 µM (inactive). For the same molecule, the GI50 [22] was 15.8 µM (inactive), the GI50 [23] was 20.1 µM (inactive) and the GI50 [24] was 12.6 µM (inactive). The GI50 [25] was 10.4 µM (inactive), the GI50 [26] was 12 µM (inactive) and the GI50 [27] was 15.3 µM (inactive). For the same molecule, the GI50 [28] was 27.1 µM (inactive), the GI50 [29] was 32.9 µM (inactive) and the GI50 [30] was 34.4 µM (inactive). For the same molecule, the GI50 [31] was 12.6 µM (inactive), the GI50 [32] was 14 µM (inactive) and the GI50 [33] was 25.5 µM (inactive). For the same molecule, the GI50 [34] was 12.9 µM (inactive), the GI50 [35] was 23 µM (inactive) and the GI50 [36] was 17.9 µM (inactive). The GI50 [37] was 18.4 µM (inactive), the GI50 [38] was 27.8 µM (inactive) and the GI50 [39] was 8.65 µM (inactive). For the same molecule, the GI50 [40] was 28.8 µM (inactive), the GI50 [41] was 26.9 µM (inactive) and the GI50 [42] was 39.3 µM (inactive). The GI50 [43] was 18.3 µM (inactive), the GI50 [44] was 41.4 µM (inactive) and the GI50 [45] was 27.4 µM (inactive). The GI50 [46] was 39 µM (inactive), the GI50 [47] was 23.8 µM (inactive) and the GI50 [48] was 18.4 µM (inactive). The GI50 [49] was 18.2 µM (inactive), the GI50 [50] was 17.2 µM (inactive) and the GI50 [51] was 18.4 µM (inactive).

For Cn1c(=O)c(C(c2ccc([N+](=O)[O-])cc2)c2c(O)c3ccccc3n(C)c2=O)cc2ccccc21 (stereo not given), the GI50 [1] was 54.6 µM (inactive), the GI50 [2] was 93.5 µM (inactive) and the GI50 [52] was 57.8 µM (inactive). The GI50 [53] was 47.8 µM (inactive), the GI50 [4] was 32.7 µM (inactive) and the GI50 [54] was 36.8 µM (inactive). The GI50 [5] was 56.2 µM (inactive), the GI50 [6] was 37.2 µM (inactive) and the GI50 [7] was 41.7 µM (inactive). For the same molecule, the GI50 [55] was > 100 µM (inactive), the GI50 [8] was 44.2 µM (inactive) and the GI50 [9] was 45.8 µM. For the same molecule, the GI50 [56] was 36.1 µM (inactive), the GI50 [10] was 42.5 µM (inactive) and the GI50 [11] was 27.7 µM (inactive). For the same molecule, the GI50 [12] was 53.1 µM (inactive), the GI50 [13] was 44.8 µM (inactive) and the GI50 [14] was 42.3 µM (inactive). The GI50 [15] was > 100 µM (inactive), the GI50 [16] was 45 µM (inactive) and the GI50 [17] was 75.2 µM (inactive). For the same molecule, the GI50 [18] was 35.2 µM (inactive), the GI50 [19] was 42.2 µM (inactive) and the GI50 [20] was 37.8 µM (inactive). The GI50 [21] was 35.5 µM (inactive), the GI50 [22] was 41.7 µM (inactive) and the GI50 [23] was 26.7 µM (inactive). The GI50 [24] was 13.4 µM (inactive), the GI50 [25] was 32.6 µM (inactive) and the GI50 [57] was > 100 µM (inactive). The GI50 [26] was 20 µM (inactive), the GI50 [27] was 55.3 µM (inactive) and the GI50 [28] was 41.1 µM (inactive). The GI50 [29] was 28.4 µM (inactive), the GI50 [30] was > 100 µM (inactive) and the GI50 [31] was 41.8 µM (inactive). For the same molecule, the GI50 [32] was 26.4 µM (inactive), the GI50 [33] was 49.9 µM (inactive) and the GI50 [34] was 53.1 µM (inactive). The GI50 [35] was 39.3 µM (inactive), the GI50 [36] was 43.6 µM (inactive) and the GI50 [37] was 48.1 µM (inactive). For the same molecule, the GI50 [38] was 59.6 µM (inactive), the GI50 [39] was 51.3 µM (inactive) and the GI50 [40] was 60.1 µM (inactive). For the same molecule, the GI50 [41] was 57.7 µM (inactive), the GI50 [42] was 40.3 µM (inactive) and the GI50 [43] was 23 µM (inactive). The GI50 [44] was 43.2 µM (inactive), the GI50 [58] was 39.4 µM (inactive) and the GI50 [45] was > 100 µM (inactive). The GI50 [46] was 29.9 µM (inactive), the GI50 [47] was 18.2 µM (inactive) and the GI50 [48] was 20.5 µM (inactive). The GI50 [49] was 19.2 µM (inactive), the GI50 [50] was 35.2 µM (inactive) and the GI50 [51] was 55.3 µM (inactive).

Cc1ccccc1C1=C(C(=O)Nc2ccc(Cl)c(Cl)c2)NC(=S)NC1N (stereo not given) was tested, and the GI50 [1] was > 100 µM (inactive), the GI50 [59] was > 100 µM (inactive) and the GI50 [2] was > 100 µM (inactive). The GI50 [52] was > 100 µM (inactive), the GI50 [53] was > 100 µM (inactive) and the GI50 [3] was > 100 µM (inactive). For the same molecule, the GI50 [4] was > 100 µM (inactive), the GI50 [54] was > 100 µM (inactive) and the GI50 [5] was > 100 µM (inactive). For the same molecule, the GI50 [6] was > 100 µM (inactive), the GI50 [7] was > 100 µM (inactive) and the GI50 [8] was > 100 µM (inactive). The GI50 [9] was greater than 100 µM, the GI50 [10] was > 100 µM (inactive) and the GI50 [13] was > 100 µM (inactive). The GI50 [14] was > 100 µM (inactive), the GI50 [15] was > 100 µM (inactive) and the GI50 [16] was > 100 µM (inactive). The GI50 [17] was > 100 µM (inactive), the GI50 [18] was > 100 µM (inactive) and the GI50 [19] was > 100 µM (inactive). The GI50 [20] was > 100 µM (inactive), the GI50 [21] was > 100 µM (inactive) and the GI50 [22] was > 100 µM (inactive). The GI50 [23] was > 100 µM (inactive), the GI50 [25] was > 100 µM (inactive) and the GI50 [57] was > 100 µM (inactive). For the same molecule, the GI50 [26] was > 100 µM (inactive), the GI50 [27] was > 100 µM (inactive) and the GI50 [28] was > 100 µM (inactive). The GI50 [29] was 82.6 µM (inactive), the GI50 [30] was > 100 µM (inactive) and the GI50 [31] was > 100 µM (inactive). The GI50 [32] was > 100 µM (inactive), the GI50 [33] was > 100 µM (inactive) and the GI50 [34] was > 100 µM (inactive). For the same molecule, the GI50 [36] was > 100 µM (inactive), the GI50 [37] was > 100 µM (inactive) and the GI50 [38] was > 100 µM (inactive). The GI50 [39] was > 100 µM (inactive), the GI50 [40] was > 100 µM (inactive) and the GI50 [41] was > 100 µM (inactive). The GI50 [42] was > 100 µM (inactive), the GI50 [43] was > 100 µM (inactive) and the GI50 [44] was > 100 µM (inactive). The GI50 [45] was > 100 µM (inactive), the GI50 [46] was > 100 µM (inactive) and the GI50 [47] was > 100 µM (inactive). For the same molecule, the GI50 [48] was > 100 µM (inactive), the GI50 [49] was > 100 µM (inactive) and the GI50 [50] was > 100 µM (inactive). The GI50 [51] was > 100 µM (inactive).
